Reference: ChEMBL document CHEMBL5532641, “MNK, mTOR or eIF4E-selecting the best anti-tumor target for blocking translation initiation” (Eur J Med Chem, 2023)
Values belong to the compound of their own block, whether it stands above or below them.

How the values were obtained:
[1] = molecular target: Phosphatidylinositol 4,5-bisphosphate 3-kinase catalytic subunit gamma isoform (Homo sapiens, UniProt P48736)
[2] = molecular target: MAP kinase-interacting serine/threonine-protein kinase 2 (Homo sapiens, UniProt Q9HBH9)
MAP kinase-interacting serine/threonine-protein kinase 2, sequence (Q9HBH9 whole entry): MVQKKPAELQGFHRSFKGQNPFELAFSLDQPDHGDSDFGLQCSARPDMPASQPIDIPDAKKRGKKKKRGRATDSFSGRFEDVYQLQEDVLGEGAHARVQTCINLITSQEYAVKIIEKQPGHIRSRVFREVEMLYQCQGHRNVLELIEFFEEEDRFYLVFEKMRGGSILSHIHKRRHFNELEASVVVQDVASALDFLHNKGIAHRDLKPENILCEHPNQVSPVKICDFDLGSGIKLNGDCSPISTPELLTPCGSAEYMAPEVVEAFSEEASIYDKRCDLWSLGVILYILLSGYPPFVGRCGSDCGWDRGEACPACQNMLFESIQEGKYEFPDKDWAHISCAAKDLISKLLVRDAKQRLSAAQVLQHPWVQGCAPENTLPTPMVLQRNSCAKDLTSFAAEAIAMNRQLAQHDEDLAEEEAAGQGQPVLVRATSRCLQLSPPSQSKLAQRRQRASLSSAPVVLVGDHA

mTORC1 (Homo sapiens) = mTORC1 (Homo sapiens) (UniProt P42345+Q8N122+Q9BVC4); conditions: dose 500.0 nM
mTORC1 (Homo sapiens), sequence (Q8N122 whole entry, looked up, other chains not shown): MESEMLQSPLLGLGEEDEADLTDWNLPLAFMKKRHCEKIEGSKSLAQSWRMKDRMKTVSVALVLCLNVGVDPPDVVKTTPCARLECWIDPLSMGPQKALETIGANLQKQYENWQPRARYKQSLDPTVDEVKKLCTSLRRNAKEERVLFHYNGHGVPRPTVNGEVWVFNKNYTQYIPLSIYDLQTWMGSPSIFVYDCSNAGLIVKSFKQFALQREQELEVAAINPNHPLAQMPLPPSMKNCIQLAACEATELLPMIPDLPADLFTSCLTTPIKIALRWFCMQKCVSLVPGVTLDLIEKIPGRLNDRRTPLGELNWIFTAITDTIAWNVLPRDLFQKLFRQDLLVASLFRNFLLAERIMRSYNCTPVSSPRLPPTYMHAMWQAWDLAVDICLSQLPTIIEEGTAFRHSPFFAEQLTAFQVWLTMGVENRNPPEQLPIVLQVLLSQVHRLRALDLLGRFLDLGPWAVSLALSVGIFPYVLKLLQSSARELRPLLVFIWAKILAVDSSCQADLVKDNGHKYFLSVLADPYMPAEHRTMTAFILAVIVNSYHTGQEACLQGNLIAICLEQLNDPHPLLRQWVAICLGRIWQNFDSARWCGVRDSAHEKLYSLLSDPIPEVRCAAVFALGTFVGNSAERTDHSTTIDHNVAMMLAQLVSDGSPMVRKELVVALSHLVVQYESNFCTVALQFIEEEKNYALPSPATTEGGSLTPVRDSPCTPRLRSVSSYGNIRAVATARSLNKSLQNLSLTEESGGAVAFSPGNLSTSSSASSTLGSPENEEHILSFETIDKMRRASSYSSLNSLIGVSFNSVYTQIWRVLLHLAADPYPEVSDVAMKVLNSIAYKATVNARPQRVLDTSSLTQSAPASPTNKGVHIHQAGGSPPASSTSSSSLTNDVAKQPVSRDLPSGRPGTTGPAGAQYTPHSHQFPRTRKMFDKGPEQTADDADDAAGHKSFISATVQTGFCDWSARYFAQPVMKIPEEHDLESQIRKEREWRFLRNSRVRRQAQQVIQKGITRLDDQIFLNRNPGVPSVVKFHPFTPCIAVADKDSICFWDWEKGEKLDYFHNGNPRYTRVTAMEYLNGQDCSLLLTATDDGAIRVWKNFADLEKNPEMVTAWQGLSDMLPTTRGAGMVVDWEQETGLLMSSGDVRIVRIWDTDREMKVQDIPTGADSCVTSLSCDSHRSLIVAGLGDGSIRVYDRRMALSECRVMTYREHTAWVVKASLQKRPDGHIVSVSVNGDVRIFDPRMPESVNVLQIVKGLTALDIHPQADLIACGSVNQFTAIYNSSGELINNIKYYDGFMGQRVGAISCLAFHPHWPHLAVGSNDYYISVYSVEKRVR
mTORC1 (Homo sapiens), sequence (Q9BVC4 whole entry, looked up, other chains not shown): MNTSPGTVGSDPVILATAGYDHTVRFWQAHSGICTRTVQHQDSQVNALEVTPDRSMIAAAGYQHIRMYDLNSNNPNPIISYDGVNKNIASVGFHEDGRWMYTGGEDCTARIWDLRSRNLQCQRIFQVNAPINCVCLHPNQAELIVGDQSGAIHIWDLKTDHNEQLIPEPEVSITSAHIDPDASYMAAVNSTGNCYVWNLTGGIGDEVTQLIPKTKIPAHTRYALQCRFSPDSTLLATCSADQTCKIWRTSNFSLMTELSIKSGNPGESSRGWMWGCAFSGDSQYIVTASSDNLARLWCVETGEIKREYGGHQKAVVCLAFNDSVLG

in vivo = conditions: mouse, po
A549 = test: cells; type: functional, cell-based; conditions: Homo sapiens, A549, 70 min
MDA-MB-231 [3] = test: animal or person; type: functional, Homo sapiens; conditions: Mus musculus, MDA-MB-231, 696 h, route ip, time 29 day, read-out: TGI
MDA-MB-231 [4] = test: animal or person; type: functional, Homo sapiens; conditions: Mus musculus, MDA-MB-231, 696 h, route ip, time 29 day, read-out: TGI; remark: listed apart in the source
MDA-MB-231 [5] = test: animal or person; type: functional, Homo sapiens; conditions: Mus musculus, MDA-MB-231, 696 h, route ip, time 29 day, read-out: TGI; remark: listed apart in the source
CWR22R [6] = test: animal or person; type: functional, Homo sapiens; conditions: Mus musculus, 22Rv1, 816 h, route ip, time 34 day, read-out: TGI
CWR22R [7] = test: animal or person; type: functional, Homo sapiens; conditions: Mus musculus, 22Rv1, 816 h, route ip, time 34 day, read-out: TGI; remark: listed apart in the source
animal or person = type: functional; conditions: Homo sapiens, BR100 cell, 408 h, route ip, time 17 day, read-out: TGI
[8] = molecular target: Eukaryotic initiation factor 4A-I (Homo sapiens, UniProt P60842)
Leukemia cell = test: cells; type: functional, cell-based; conditions: Homo sapiens, 72 h
Lymphoma cell line = test: cells; type: functional, cell-based; conditions: Homo sapiens, 72 h
EIF4E/EIF4G1 = EIF4E/EIF4G1 (Homo sapiens, UniProt P06730+Q04637); type: protein-complex assay
EIF4E/EIF4G1, sequence (P06730 whole entry): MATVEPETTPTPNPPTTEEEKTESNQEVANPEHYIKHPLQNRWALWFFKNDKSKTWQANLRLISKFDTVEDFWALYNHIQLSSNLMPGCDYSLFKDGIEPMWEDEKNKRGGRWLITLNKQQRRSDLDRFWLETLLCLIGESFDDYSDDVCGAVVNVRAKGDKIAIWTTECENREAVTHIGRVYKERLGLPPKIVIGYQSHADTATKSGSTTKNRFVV
EIF4E/EIF4G1, sequence (Q04637 whole entry): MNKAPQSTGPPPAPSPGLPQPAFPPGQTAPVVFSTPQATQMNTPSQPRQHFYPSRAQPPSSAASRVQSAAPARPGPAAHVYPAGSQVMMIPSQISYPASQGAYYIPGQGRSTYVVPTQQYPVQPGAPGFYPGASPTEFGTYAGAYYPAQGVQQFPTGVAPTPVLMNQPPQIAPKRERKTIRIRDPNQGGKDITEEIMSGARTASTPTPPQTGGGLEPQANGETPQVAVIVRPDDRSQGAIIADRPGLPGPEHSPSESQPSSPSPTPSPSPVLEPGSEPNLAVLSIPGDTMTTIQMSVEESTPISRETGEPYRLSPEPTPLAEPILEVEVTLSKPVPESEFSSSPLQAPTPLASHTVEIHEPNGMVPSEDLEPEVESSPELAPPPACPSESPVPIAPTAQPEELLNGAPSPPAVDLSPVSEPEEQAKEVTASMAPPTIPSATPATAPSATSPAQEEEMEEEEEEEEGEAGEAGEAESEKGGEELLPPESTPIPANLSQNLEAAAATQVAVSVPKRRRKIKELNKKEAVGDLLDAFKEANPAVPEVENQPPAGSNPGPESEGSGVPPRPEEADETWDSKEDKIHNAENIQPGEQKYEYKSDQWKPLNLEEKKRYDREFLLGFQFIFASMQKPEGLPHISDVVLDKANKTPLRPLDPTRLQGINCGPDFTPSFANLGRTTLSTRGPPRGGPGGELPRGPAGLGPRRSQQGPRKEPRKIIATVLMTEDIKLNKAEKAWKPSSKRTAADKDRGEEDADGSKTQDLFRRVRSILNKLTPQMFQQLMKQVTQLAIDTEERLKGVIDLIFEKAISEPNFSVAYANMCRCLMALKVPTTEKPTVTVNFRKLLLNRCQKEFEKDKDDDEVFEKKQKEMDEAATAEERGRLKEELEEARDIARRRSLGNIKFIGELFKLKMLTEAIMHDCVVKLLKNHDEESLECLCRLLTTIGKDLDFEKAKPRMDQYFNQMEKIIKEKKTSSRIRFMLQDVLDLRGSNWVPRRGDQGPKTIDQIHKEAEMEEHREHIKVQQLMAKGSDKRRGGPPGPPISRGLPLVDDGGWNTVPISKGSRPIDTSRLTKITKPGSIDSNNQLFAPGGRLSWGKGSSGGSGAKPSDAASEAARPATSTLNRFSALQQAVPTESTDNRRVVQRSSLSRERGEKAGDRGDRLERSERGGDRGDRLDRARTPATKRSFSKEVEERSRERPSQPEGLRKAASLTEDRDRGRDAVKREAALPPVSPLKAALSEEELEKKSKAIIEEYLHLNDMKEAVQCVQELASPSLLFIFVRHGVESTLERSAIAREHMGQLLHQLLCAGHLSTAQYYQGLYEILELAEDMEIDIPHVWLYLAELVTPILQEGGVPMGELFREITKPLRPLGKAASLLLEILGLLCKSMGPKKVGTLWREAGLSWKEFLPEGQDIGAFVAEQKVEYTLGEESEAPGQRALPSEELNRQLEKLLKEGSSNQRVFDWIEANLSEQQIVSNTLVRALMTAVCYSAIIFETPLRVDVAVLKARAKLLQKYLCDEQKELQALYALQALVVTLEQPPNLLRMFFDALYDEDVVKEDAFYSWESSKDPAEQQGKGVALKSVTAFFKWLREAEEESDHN

Phosphatidylinositol 4,5-bisphosphate 3-kinase catalytic subunit gamma isoform, sequence (P48736 whole entry, canonical isoform): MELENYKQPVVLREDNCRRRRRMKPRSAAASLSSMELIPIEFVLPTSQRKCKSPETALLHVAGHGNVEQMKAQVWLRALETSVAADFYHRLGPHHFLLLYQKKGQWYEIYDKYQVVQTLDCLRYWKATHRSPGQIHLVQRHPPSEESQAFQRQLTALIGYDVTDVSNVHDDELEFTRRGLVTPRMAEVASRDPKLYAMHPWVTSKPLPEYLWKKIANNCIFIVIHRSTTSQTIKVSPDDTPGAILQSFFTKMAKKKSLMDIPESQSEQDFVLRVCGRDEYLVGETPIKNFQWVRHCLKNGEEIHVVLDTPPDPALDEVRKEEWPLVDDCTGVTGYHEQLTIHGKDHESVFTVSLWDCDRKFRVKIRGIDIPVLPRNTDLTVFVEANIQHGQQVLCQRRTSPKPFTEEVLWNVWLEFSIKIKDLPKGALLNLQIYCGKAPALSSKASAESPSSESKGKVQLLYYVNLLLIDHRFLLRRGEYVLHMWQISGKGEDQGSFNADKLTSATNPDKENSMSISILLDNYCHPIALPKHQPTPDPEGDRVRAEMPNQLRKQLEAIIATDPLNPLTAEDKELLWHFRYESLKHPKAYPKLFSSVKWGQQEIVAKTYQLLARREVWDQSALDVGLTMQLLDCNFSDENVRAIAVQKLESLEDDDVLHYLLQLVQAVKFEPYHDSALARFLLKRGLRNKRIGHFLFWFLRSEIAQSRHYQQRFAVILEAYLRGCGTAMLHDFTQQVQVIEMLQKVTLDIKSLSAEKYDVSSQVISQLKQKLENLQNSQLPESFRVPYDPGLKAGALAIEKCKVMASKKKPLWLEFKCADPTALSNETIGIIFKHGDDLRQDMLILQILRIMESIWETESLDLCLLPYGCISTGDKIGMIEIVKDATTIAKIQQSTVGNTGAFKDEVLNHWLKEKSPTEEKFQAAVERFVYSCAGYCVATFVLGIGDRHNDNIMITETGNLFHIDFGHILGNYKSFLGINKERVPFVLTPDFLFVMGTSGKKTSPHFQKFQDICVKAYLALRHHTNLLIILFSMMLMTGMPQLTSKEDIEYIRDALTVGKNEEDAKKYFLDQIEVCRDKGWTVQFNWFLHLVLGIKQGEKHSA

IC50 [2]: 904 nM
Structure (SMILES): C[C@H](CN)Oc1ccc2ncc(-c3cc4ccccc4o3)n2n1

IC50 (A549): 6000 nM
Structure (SMILES): O=C(O)/C(Cc1ccccc1[N+](=O)[O-])=N/Nc1nc(-c2ccc(Cl)c(Cl)c2)cs1

IC50 (EIF4E/EIF4G1): 13500 nM
Structure (SMILES): O=C(O)c1cc(-c2ccc(/C=C3\SC(=S)N(Cc4ccccc4)C3=O)o2)ccc1Cl

Further lines, the compound ahead of its results:

Structure (SMILES): COc1ncc(-c2ccc3nccc(-c4ccnnc4)c3c2)cc1NS(=O)(=O)c1ccc(F)cc1F [OMIPALISIB]
IC50 [1]: 0.024 nM

Structure (SMILES): Oc1cccc(-c2nc(N3CCOCC3)c3oc4ncccc4c3n2)c1
inhibition (mTORC1 (Homo sapiens)): 83.9%

Structure (SMILES): COC(=O)[C@H]1[C@@H](O)[C@@]2(O)c3c(OC)cc(O[C@@H]4O[C@@H]([C@H](O)CO)CO[C@H]4OC)cc3O[C@@]2(c2ccc(OC)cc2)[C@@H]1c1ccccc1 [SILVESTROL]
bioavailability (in vivo): 1%

Structure (SMILES): CC1=C(/C=C/C(C)=C/C=C/C(C)=C/C(=O)Nc2ccc(F)cc2)C(C)(C)CCC1n1ccnc1 (stereo not given)
inhibition in vivo at 10 mg/kg (MDA-MB-231 [3]): 97% | inhibition in vivo at 20 mg/kg (MDA-MB-231 [4]): 97% | inhibition in vivo at 5 mg/kg (MDA-MB-231 [5]): 91% | inhibition in vivo at 10 mg/kg (CWR22R [6]): 63.4% | inhibition in vivo at 20 mg/kg (CWR22R [7]): 76.3% | inhibition in vivo at 10 mg/kg (animal or person): 73.3%

Structure (SMILES): C=C1C[C@@H](O)[C@@H](Br)C(C)(C)[C@]12CCC(C)=C(Cl)C2
IC50 [8]: 16400 nM | IC50 (Leukemia cell): 1700 nM | IC50 (Lymphoma cell line): 1600 nM
